Experimental data taken from patent US20170368082A1, “FORMULATIONS OF BRINCIDOFOVIR” (priority 2016, published 2017).

Experiment: Tissue distribution by quantitative whole-body autoradiography (QWBA)
Assay type: in vivo, male Sprague Dawley and Long-Evans rats
Conditions: for Concentration of radioactivity: SD rat, 15 mg/kg IV
Method: The study utilized 4 groups of male SD rats (albino), and 3 groups of male LE rats (pigmented); a total of 39 rats. All animals were obtained from Hilltop Lab Animals, Inc. (Scottdale, Pa.). […] Rats in Group 5 were administered a single 2-h IV infusion of [^14C]brincidofovir at a target dose of 2 mg/kg. […] Three dosing formulations (one for high dose IV, one for low dose IV, and one for PO dose) were prepared at QPS on the day of dosing. The IV formulation for Groups 1, 2, 3, and 4 contained a vehicle of 10 mM sodium phosphate buffer in 5% dextrose solution at pH 8.0(±0.1).
Each animal, at their respective termination time points, was euthanized for QWBA analysis immediately after blood collection. One rat per time point per Group was euthanized as listed below.
The blood samples were maintained on wet ice (approximately 4° C.) and then centrifuged to obtain plasma within 1 h of the blood collection time. Centrifuge settings were recorded in the study notebook. Duplicate aliquots of plasma (0.050 mL) were analyzed for radioactivity using direct counting by LSC, and residual plasma was stored at approximately −70° C. and was saved for possible future analysis under a separate study protocol. Residual red blood cells were discarded as radioactive waste.
The pinna, distal limbs, hair, and tail were removed from each frozen carcass and each frozen carcass was embedded in an aqueous suspension of approximately 2% (w/v) carboxymethylcellulose and frozen into a block. The blocks were stored at approximately −20° C. prior to sectioning. Each blocked carcass was mounted on the object stage of a cryomicrotome (Leica CM3600 Cryomacrocut, Nussloch, Germany and Vibratome 9800, St. Louis, Mo.) maintained at approximately −20° C. and internal standards (3), which were plasma fortified with [^14C]-glucose at one concentration (approximately 0.05 μCi/mL), were placed into the frozen blocks, prior to sectioning, and were used for section thickness quality control. A number of whole-body sections (approximately 40 μm thick) were taken in the sagittal plane at various levels of interest using a whole-body cryomicrotome set at −20° C. Sagittal sections (20-50 μm thick) of frozen carcasses were exposed to phosphor imaging plates. Regions of images in tissues were converted to concentrations using standards. All of the major tissues, organs, and biological fluids were represented.
Tissue concentration data was determined for the following tissues and/or contents: adipose (brown and white), adrenal gland, bile (in duct), blood (cardiac), bone, bone marrow, brain (cerebrum, cerebellum, medulla), cecum (and contents), large intestine (and contents), epididymis, esophagus, eye (uvea and lens), Harderian gland, heart, kidney (cortex and medulla), liver, lung, lymph node, pancreas, pituitary gland, prostate gland, salivary gland, seminal vesicles, skeletal muscle, skin (pigmented and non-pigmented), small intestine (and contents), stomach (gastric mucosa and contents), spleen, spinal cord, testis, thymus, thyroid, and urinary bladder (and contents).
The imaging plate and sections were placed in light-tight exposure cassettes, in a copper-lined lead safe, for a 4-day exposure at room temperature. […] Quantification was performed by image densitometry using MCD image analysis software (v. 7.0, Interfocus Imaging Ltd) and a standard curve constructed from the integrated response [i.e., Molecular Dynamics Counts per square millimeter (MDC/mm^2)] and the nominal concentrations of the ^14C-calibration standards. The concentrations of radioactivity were expressed as the μg equivalents of [^14C]brincidofovir per gram sample (μg equiv/g). A lower limit of quantification (LLOQ) was applied to the data (See section 6.7.4).
Tissue concentrations that fell below the LLOQ were identified as being below the quantification limit (BQL). Tissue areas that were not visualized on autoradiographic images were identified as no sample (NS) and reported as BQL.

For CCCCCCCCCCCCCCCCOCCCOP(=O)(O)CO[C@H](CO)Cn1ccc(N)nc1=O [[^14C]brincidofovir], the “Concentration at Tmax: kidney medulla” value (Group 6 SD, 15 mg/kg PO) was 7.9 μg equiv/g, the “Concentration at Tmax: liver” value (Group 6 SD, 15 mg/kg PO) was 20.6 μg equiv/g and the “Concentration at Tmax: small intestine” value (Group 6 SD, 15 mg/kg PO) was 236.3 μg equiv/g. For the same compound, the “Concentration at Tmax: stomach” value (Group 6 SD, 15 mg/kg PO) was 11.2 μg equiv/g, the “Concentration at Tmax: urinary bladder” value (Group 6 SD, 15 mg/kg PO) was 17.3 μg equiv/g and the “Residual concentration in small intestine at 168 h” value (Group 6 SD, 15 mg/kg PO) was 2.7 μg equiv/g. For the same compound, the “Highest observed concentration in blood” value (Group 6 SD, 15 mg/kg PO, 2 h) was 0.200 μg equiv/g, the Urinary bladder contents (Group 7, 8 h) was 110.9 μg equiv/g and the “Concentration of radioactivity, Eye (lens)” value (Group 7 LE pigmented rats, oral 15 mg/kg, c2-c11 = 0.5, 1, 2, 4, 8, 24, 72, 96, 168, 840 h, LLOQ 0.034) was “BQL”. The “Concentration at Tmax: cecum” value (Group 7 LE, 15 mg/kg PO) was 7.6 μg equiv/g, the “Concentration at Tmax: kidney cortex” value (Group 7 LE, 15 mg/kg PO) was 17.8 μg equiv/g and the “Concentration at Tmax: kidney medulla” value (Group 7 LE, 15 mg/kg PO) was 9.1 μg equiv/g. The “Concentration at Tmax: large intestine” value (Group 7 LE, 15 mg/kg PO) was 3.3 μg equiv/g, the “Concentration at Tmax: liver” value (Group 7 LE, 15 mg/kg PO) was 36.1 μg equiv/g and the “Concentration at Tmax: small intestine” value (Group 7 LE, 15 mg/kg PO) was 458.5 μg equiv/g. The “Concentration at Tmax: stomach” value (Group 7 LE, 15 mg/kg PO) was 12.0 μg equiv/g, the “Concentration at Tmax: urinary bladder” value (Group 7 LE, 15 mg/kg PO) was 3.7 μg equiv/g and the “Highest observed concentration in blood” value (Group 7 LE, 15 mg/kg PO, 8 h) was 1.1 μg equiv/g. It also gave a Concentration of radioactivity (Harderian Gland, 2 h) of 2.081 μg equiv./g, a Concentration of radioactivity (Harderian Gland, 24 h) of 1.278 μg equiv./g and a Concentration of radioactivity (Harderian Gland, 168 h) of 0.954 μg equiv./g. For the same compound, the Concentration of radioactivity (Heart, 2 h) was 2.540 μg equiv./g, the Concentration of radioactivity (Heart, 24 h) was 0.408 μg equiv./g and the Concentration of radioactivity (Heart, 168 h) was 0.057 μg equiv./g. The “Radioactivity in brain and spinal cord relative to plasma concentration” value (IV administration) was about 20%, the “Tissue to plasma ratios (T/P) in liver, kidney and small intestine” value (IV and oral) was over 30 and the “Small intestine tissue to plasma ratio” value (IV infusion, 15 mg/kg) was 32. It also gave a Concentration of radioactivity (Kidney Cortex, 2 h) of 106.513 μg equiv./g, a Concentration of radioactivity (Kidney Cortex, 24 h) of 32.109 μg equiv./g and a Concentration of radioactivity (Kidney Cortex, 168 h) of 0.474 μg equiv./g. The Concentration of radioactivity (Kidney Medulla, 2 h) was 33.444 μg equiv./g, the Concentration of radioactivity (Kidney Medulla, 24 h) was 4.271 μg equiv./g and the Concentration of radioactivity (Kidney Medulla, 168 h) was 0.186 μg equiv./g. It also gave a Concentration of radioactivity (Liver, 2 h) of 229.371 μg equiv./g, a Concentration of radioactivity (Liver, 24 h) of 13.907 μg equiv./g and a Concentration of radioactivity (Liver, 168 h) of 0.453 μg equiv./g. It also gave a Concentration of radioactivity (Lung, 2 h) of 5.675 μg equiv./g, a Concentration of radioactivity (Lung, 24 h) of 1.128 μg equiv./g and a Concentration of radioactivity (Lung, 168 h) of 0.296 μg equiv./g. For the same compound, the Concentration of radioactivity (Lymph Node, 2 h) was 4.055 μg equiv./g, the Concentration of radioactivity (Lymph Node, 24 h) was 1.004 μg equiv./g and the Concentration of radioactivity (Lymph Node, 168 h) was 0.247 μg equiv./g. The Concentration of radioactivity (Pancreas, 2 h) was 1.974 μg equiv./g, the Concentration of radioactivity (Pancreas, 24 h) was 0.557 μg equiv./g and the Concentration of radioactivity (Pancreas, 168 h) was “BQL (BQL = Value is below the LLOQ)”. The Concentration of radioactivity (Pituitary Gland, 2 h) was 2.793 μg equiv./g, the Concentration of radioactivity (Pituitary Gland, 24 h) was 1.021 μg equiv./g and the Concentration of radioactivity (Pituitary Gland, 168 h) was 0.257 μg equiv./g. The Concentration of radioactivity (Prostate Gland, 2 h) was 2.033 μg equiv./g, the Concentration of radioactivity (Prostate Gland, 24 h) was 0.254 μg equiv./g and the Concentration of radioactivity (Prostate Gland, 168 h) was 0.051 μg equiv./g. The Concentration of radioactivity (Salivary Gland, 2 h) was 2.049 μg equiv./g, the Concentration of radioactivity (Salivary Gland, 24 h) was 0.395 μg equiv./g and the Concentration of radioactivity (Salivary Gland, 168 h) was 0.047 μg equiv./g. The Concentration of radioactivity (Seminal Vesicles, 2 h) was 1.809 μg equiv./g, the Concentration of radioactivity (Seminal Vesicles, 24 h) was 1.636 μg equiv./g and the Concentration of radioactivity (Seminal Vesicles, 168 h) was 0.817 μg equiv./g. For the same compound, the Concentration of radioactivity (Skeletal Muscle, 2 h) was 0.868 μg equiv./g, the Concentration of radioactivity (Skeletal Muscle, 24 h) was 0.099 μg equiv./g and the Concentration of radioactivity (Skeletal Muscle, 168 h) was “BQL (BQL = Value is below the LLOQ)”. For the same compound, the Concentration of radioactivity (Skin (non-pigmented), 2 h) was 2.277 μg equiv./g, the Concentration of radioactivity (Skin (non-pigmented), 24 h) was 0.602 μg equiv./g and the Concentration of radioactivity (Skin (non-pigmented), 168 h) was 0.121 μg equiv./g. The Concentration of radioactivity (Spinal Cord, 2 h) was 0.437 μg equiv./g, the Concentration of radioactivity (Spinal Cord, 24 h) was 0.079 μg equiv./g and the Concentration of radioactivity (Spinal Cord, 168 h) was “BQL (BQL = Value is below the LLOQ)”. It also gave a Concentration of radioactivity (Spleen, 2 h) of 4.536 μg equiv./g, a Concentration of radioactivity (Spleen, 24 h) of 2.244 μg equiv./g and a Concentration of radioactivity (Spleen, 168 h) of 0.694 μg equiv./g. The Concentration of radioactivity (Testis, 2 h) was 1.647 μg equiv./g, the Concentration of radioactivity (Testis, 24 h) was 0.436 μg equiv./g and the Concentration of radioactivity (Testis, 168 h) was 0.078 μg equiv./g. The Concentration of radioactivity (Thymus, 2 h) was 2.373 μg equiv./g, the Concentration of radioactivity (Thymus, 24 h) was 0.556 μg equiv./g and the Concentration of radioactivity (Thymus, 168 h) was 0.105 μg equiv./g. For the same compound, the Concentration of radioactivity (Thyroid, 2 h) was 2.751 μg equiv./g, the Concentration of radioactivity (Thyroid, 24 h) was 0.791 μg equiv./g and the Concentration of radioactivity (Thyroid, 168 h) was 0.239 μg equiv./g. For the same compound, the Concentration of radioactivity (Urinary Bladder (contents), 2 h) was 47.034 μg equiv./g, the Concentration of radioactivity (Urinary Bladder (contents), 24 h) was 21.237 μg equiv./g and the Concentration of radioactivity (Urinary Bladder (contents), 168 h) was 0.121 μg equiv./g. It also gave a Concentration of radioactivity (Urinary Bladder, 2 h) of 35.978 μg equiv./g, a Concentration of radioactivity (Urinary Bladder, 24 h) of 2.264 μg equiv./g and a Concentration of radioactivity (Urinary Bladder, 168 h) of 0.132 μg equiv./g. The “Radioactivity in brain and spinal cord relative to plasma concentration” value (oral administration) was about 5%, the “Small intestinal tissue to plasma ratio (T/P)” value (oral administration, 15 mg/kg) was 428 and the “Residual concentration in small intestine at 168 h” value (pigmented LE rats, 15 mg/kg PO) was 5.9 μg equiv/g.
